{"source": "patent US6528496B1", "about": "“Compositions treating, preventing or reducing elevated metabolic levels” (priority 1992, dated 2003)", "key": {"[1]": {"conditions": "2.0 mg oral dose, in the absence of intrinsic factor; cited from earlier work"}, "serum MMA and HC [2]": {"test_system": "serum MMA and HC", "assay": "Parenteral B12 treatment of geriatric outpatients with low and low/normal serum B12, response of serum MMA and HC (Example 3)", "format": "in vivo, human", "conditions": "weekly injections of 1.0 mg B12", "protocol": "A study was conducted with 152 elderly outpatient subjects to measure the prevalence of B12 deficiency in geriatric outpatients as determined by both low serum B12 levels and elevations of MMA and HC, and to determine the response to B12 treatment. Blood samples were obtained on 152 consecutive geriatric outpatients, ages 65-99. Control values were determined from 100 subjects, ages 17-65. The significance of the results marked as “**” in Table 2 are as follows: B12 levels of<200 pg/ml; folate<3.8 ng/ml; homocysteine>16.2 uM; MMA>271 nM; CT>342 nM; and 2-MCA>228 nM. Serum MMA, HC, CT, and 2-MCA levels were measured as described in Example 1. Serum B12 and folate were measured as described in Example 1 using a Corning Immophase kit (CIBA-Corning, Medfield, Mass.) with the normal range defined as 200-800 pg/ml for B12 and 3.8 ng/ml for folate. After evaluation, patients received weekly parenteral cyanocobalamin injections (1,000 ug IM) for 8 weeks, followed by monthly injections. Repeat laboratory and clinical assessments were administered at 8 weeks and at 6 months.\nPatients with low and low/normal serum B12 levels were treated with weekly injections of 1.0 mg B12. […] It appears that the true prevalence of previously unrecognized B12 deficiency in this elderly population was at least 14.5%."}, "serum MMA and HC [3]": {"test_system": "serum MMA and HC", "assay": "Parenteral B12 treatment of geriatric nursing home patients with serum B12<300 pg/ml, response of serum MMA and HC (Example 4)", "format": "in vivo, human", "protocol": "A study was conducted with 212 elderly nursing home patients to determine serum B12, folate, MMA, and HC levels (Table 3). The significance of the results shown in Table 3 marked with “**” are as described for Table 2 (Example 3). The control group consisted of 100 subjects between the ages of 17-65 years."}, "[4]": {"conditions": "parenteral 1 mg per week for 8 weeks, nursing home patients with serum B12<300 pg/ml"}}, "note": "Entries after “also recorded” stand apart in the source; their conditions may differ."}
{"substance": "cyanocobalamin [B12]", "values": [{"measurement": "fraction of oral dose absorbed by diffusion", "setting": "[1]", "result": "approximately 1%"}, {"measurement": "effect on elevated metabolite levels (serum MMA and HC, FIGS. 4 and 5)", "setting": "serum MMA and HC [2]", "result": "fall to or towards normal; also recorded: did not fully respond"}, {"measurement": "effect on elevated serum HC levels (FIG. 10)", "setting": "serum MMA and HC [3]; [4]", "result": "fall to or towards normal"}, {"measurement": "effect on elevated serum MMA levels (FIG. 9)", "setting": "serum MMA and HC [3]; [4]", "result": "fall to or towards normal"}, {"measurement": "response of elevated metabolite levels to B12 treatment", "setting": "serum MMA and HC [3]; some of the nursing home patients with elevated metabolite levels", "result": "did not fully respond"}]}
